The subject of data set [1] is human NCI-H441 NSCLC tumor cells. The conditions noted are these: female CD-1 nude mice; for T/C: end of treatment (18 days), compound 100 mg/kg orally 5 days on 2 days off, erlotinib 40 then 30 mg/kg (MTD).
Experimental: (§1) Method: Female CD-1 nude mice (6-8 week old) where subcutaneously injected with human NCI-H441 NSCLC tumor cells and were divided into 4 groups (ten animals in one group) after the tumors were established. Respective groups were administered orally with the 3-(1-{3-[5-(1-Methyl-piperidin-4-ylmethoxy)-pyrimidin-2-yl]-benzyl}-6-oxo-1,6-dihydro-pyridazin-3-yl)-benzonitrile hydrochloride hydrate (100 mg/kg—5 days on and 2 days off) or with erlotinib (initial 40 mg/kg followed by 30 mg/kg (MTD)-4 days on and 4 days off followed by 3 days on and 4 days off) alone or both drugs simultaneously for 18 days. […] Statistical calculation has been done at day 7, the day with most body weight difference in erlotinib monotherapy versus combination groups.
Data set [2] can be described thus: Body weight change / tolerability in the NCI-H441 xenograft study. The conditions noted are these: Day 7.
Experimental: as §1
Data set [3] concerns human H1975 NSCLC tumor cells. Kind of data set: H1975 NSCLC xenograft, combination with cetuximab. In kind it is in vivo. The conditions noted are these: single agent 100 mg/kg orally daily for three weeks; CD-1 nude mice.
Text: Method: Female CD-1 nude mice (6-8 week old) where subcutaneously injected with human H1975 NSCLC tumor cells and were divided into 4 groups (nine animals in one group) after the tumors were established.
Data set [4] concerns luciferase-transfected human EBC-1 NSCLC tumor cells. Kind of data set: EBC-1 NSCLC xenograft (luciferase-transfected), combination with B20.4-1. The data set is classed as in vivo. The text has this:
Formation of lung metastases was reduced and could be only detected at the end of treatment in 3/10 mice. B20.4-1 was active with a T/C of 19% and lung metastases in 4/10 mice could be detected at the end of treatment. […] Detectable formation of lung metastases could be suppressed in 10/10 mice.

Turning to `C#Cc1cccc(Nc2ncnc3cc(OCCOC)c(OCCOC)cc23)c1` [erlotinib, reference compound], the T/C in data set [1] was 82%. Moreover, in data set [2] (versus Vehicle), the “Dunn's Multiple Comparison Test, Difference in rank sum (body weight change %)” value is recorded as 6.333; the “Dunn's Multiple Comparison Test, Significant? P < 0.05? (body weight change %)” value is “no”; the “Dunn's Multiple Comparison Test, Summary (body weight change %)” value was “ns”.

On to `CN1CCC(COc2cnc(-c3cccc(Cn4nc(-c5cccc(C#N)c5)ccc4=O)c3)nc2)CC1.Cl.O` [“A”, 3-(1-{3-[5-(1-Methyl-piperidin-4-ylmethoxy)-pyrimidin-2-yl]-benzyl}-6-oxo-1,6-dihydro-pyridazin-3-yl)-benzonitrile hydrochloride hydrate], for which, in data set [3], the “anti-tumor activity (in words)” value is “inactive”. In data set [4] (SCID hairless mice, 20 days of treatment), the partial regression is listed as 1/10. In addition, in data set [4] (SCID hairless mice, 20 days, ex vivo lung images), the “lung metastases detected at the end of treatment” value was 3/10. For the same molecule, the T/C was −20% in data set [4] (end of treatment (20 days), female SCID hairless mice, compound 10 mg/kg orally daily, B20.4-1 20 mg/kg intraperitoneally biweekly) and 20% in data set [1]. Besides, the “tumor growth delay (TGD)” value in data set [1] (compound 100 mg/kg, erlotinib 40 then 30 mg/kg, 18 days) came to 16 days. In addition, the “Dunn's Multiple Comparison Test, Difference in rank sum (body weight change %)” value in data set [2] (versus Vehicle) is on record as 2.000; in data set [2] (versus erlotinib 30 mg/kg), −4.333. Moreover, the “Dunn's Multiple Comparison Test, Significant? P < 0.05? (body weight change %)” value in data set [2] (versus Vehicle) and in data set [2] (versus erlotinib 30 mg/kg) was “no” throughout. Moreover, the “Dunn's Multiple Comparison Test, Summary (body weight change %)” value in data set [2] (versus Vehicle) and in data set [2] (versus erlotinib 30 mg/kg) was “ns” each time.

(Values after patent US20150044211A1, “COMBINATION OF A 6-OXO-1,6-DIHYDRO-PYRIDAZINE DERIVATIVE HAVING ANTI-CANCER ACTIVITY WITH OTHER ANTI-TUMOR COMPOUNDS” (MERCK PATENT GMBH, priority 2012, published 2015).)
